Literature values, collected in publication PMC1657008, “Rotavirus NSP4_114-135 peptide has no direct, specific effect on chloride transport in rabbit brush-border membrane” (Virology Journal, 2006).

Test system: neonatal mouse intestinal mucosal sheets
Settings: added to neonatal mouse intestinal mucosal sheets; ref [1]
From the text: However, the cellular and molecular bases by which rotavirus and NSP4 induce a moderate net chloride secretion remain unclear.

SMILES: C[N+](C)(C)CCOC(N)=O [carbachol]
- Cl- secretory currents: transient, small and almost identical increases in Cl^- secretory currents
